Assay results published in patent US11192888B2, “Antibacterial compounds” (priority 2017, dated 2021).
Converted amounts (≈) assume the structure as drawn. Like-named read-outs stand apart in the source and are kept apart here. *1 amine or outer side, *2 acyl side, *3 side chain or, on linkers, in order; H or OH if unused. Where a SMILES comes first, the peptide text is derived from it. [ ]: non-standard residue; d: D form. dAla(ψthiazole) = C[C@@H](N[*:1])c1nc(C(=O)[*:2])cs1; Trp(4-Br) = N[C@@H](Cc1c[nH]c2cccc(Br)c12)C(=O)O; Trp(4-Cl) = N[C@@H](Cc1c[nH]c2cccc(Cl)c12)C(=O)O; Trp(4-OMe) = COc1cccc2[nH]cc(C[C@H](N)C(=O)O)c12; X1 = O=C(/C(=C/c1ccccc1)N[*:1])[*:2]; X2 = CC(C)/C=C(\N[*:1])C(=O)[*:2]; ΔVal = CC(C)=C(N)C(=O)O; Dha = C=C(N)C(=O)O; Sar = CNCC(=O)O

Columns and labels:
P. aeruginosa PAO1 = settings: for IC50 / % Growth inhibition at 100 μM: PAO1, 13 h; for activity against P. aeruginosa in comparison to the Dha containing compound 3: PAO1
B. multivorans ATCC17616 = settings: for IC50: ATCC17616, 25 h
[1] = test system: Clostridium difficile 630Δerm; settings: 13 h
Strep. agalactiae = settings: 13 h
Strep. pyogenes = settings: 13 h
[2] = test system: clinical isolates and one wild-type strain of P. aeruginosa; test: Growth of P. aeruginosa clinical isolates and wild-type strain with compounds (FIG. 1); format: cell-based, Pseudomonas aeruginosa; settings: isolates W4, W14, W23, W46 and PAO1; MH media, 13 hours (FIG. 1)
Description: FIGS. 1a and 1b are graphs showing the effects of varying concentrations of compounds 2 and 3 according to the invention on the growth of different strains of P. aeruginosa in Müller-Hinton (MH) media, after 13 hours.
The antibacterial activity of compounds 2 and 3 were tested against clinical isolates and one wild-type strain of P. aeruginosa displaying varying antibiotic sensitivity.
The antibacterial activity of compounds 2 and 3 were tested against these clinical isolates and one wild-type strain of P. aeruginosa.

[3] = test system: Corynebacterium striatium NCTC 764
[4] = test system: Lactobacillus rhamnosus ATCC 53103
[5] = test system: Enterobacter cloacae NCTC 13406
[6] = test system: Citrobacter koseri Clinical
[7] = test system: Bacteroides fragilis ATCC 25285; settings: ATCC 25285
[8] = test system: Bifidobacterium breve ATCC 15700
[9] = test system: Clostridium ramosum DSM 1402
[10] = test system: Pseudomonas aeruginosa ATCC 27853
[11] = test system: Corynebacterium jeikeium NCTC 11914
[12] = test system: Enterococcus faecalis ATCC 29212
[13] = test system: Clostridium sordellii ATCC 9714; test: CLSI MIC, representative gut bacteria; format: cell-based
Description: (§1) Comparative in vitro bacterial susceptibility to compounds 3, 9 and 10, vancomycin and metronidazole was determined using methods according to the Clinical and Laboratory Standard Institute (CLSI) approved guidelines (M7-A10, M11-A7 or M45-A2) for anaerobic and aerobic organisms.

[14] = test system: Clostridium difficile ATCC 43255; test: CLSI MIC, representative gut bacteria; format: cell-based; settings: Clostridium difficile ATCC 43255
Description: as §1

[15] = Description: In this study, a single oral dose of compound 3 in 0.5% w/v aqueous methylcellulose at 5 mg/kg was administered to nine mice in a 10 mL/kg dosing volume and housed in metabolism cages. Following administration of the compound, serial blood samples of 50 μL was taken from the lateral tail vein at each of 7 post-dosing time-points (0.25, 0.5, 1, 2, 4, 7 and 24 h). Whole blood samples were then diluted 1:1 with water and two 40 μL aliquots were pipetted into duplicate 96 well plate tubes. At the end of 24 h, all faecal samples were collected and pooled. A quantitative bioanalysis by LC-MS/MS of the blood and faecal levels of compound 3 was carried out to determine the oral absorbability and gastrointestinal metabolic stability of compound 3.
To evaluate the metabolic stability of orally administered compound 3, metabolite profiling of the faecal sample was performed.

[16] = test system: Clostridium innocuum DSM 1286
[17] = test system: Pseudomonas aeruginosa NCTC 13437
[18] = test system: Propionibacterium acnes ATCC 6919
[19] = test system: Enterococcus faecium NCTC 12204
[20] = test system: Bifidobacterium bifidum ATCC 11863
[21] = test system: Clostridium perfringens NCTC 8237
[22] = test system: Actinomyces viscosus DSM 43327
[23] = test system: Corynebacterium urealyticum NCTC 12011
B. vietnamiensis J2863 = test: Growth of Burkholderia with compound (FIG. 3), B. vietnamiensis; format: cell-based; settings: FIG. 3, LB broth, 17 hours
Description: (§2) FIG. 3 is a graph showing the effect of varying concentrations of compound 3 according to the invention on the growth of Burkholderia in Lysogeny broth (LB broth) after 17 hours.
(§3) Compound 3 was tested to determine its antibacterial activity against B. multivorans, B. cepasia and B. vietnamiensis.

[24] = test system: Proteus mirabilis DSM 30116
[25] = test system: Escherichia coli ATCC 25922
[26] = test system: Staphylococcus aureus ATCC 29213
B. cepasia ATCC25416 = test: Growth of Burkholderia with compound (FIG. 3), B. cepasia; format: cell-based; settings: FIG. 3, LB broth, 17 hours
Description: as §2, §3

[27] = amide bond, 24-membered ring, PyBOP/HOBt/DIPEA, 0.5 mM
[28] = test system: C. difficile ATCC 43255 (aka VPI 10463; ribotype 087); test: Mouse model of C. difficile-associated disease; format: in vivo, C57BL/6 mice

## C=C1NC(=O)[C@@H](C)NC(=O)CNC(=O)[C@H](Cc2c[nH]c3cccc(OC)c23)NC(=O)[C@H](Cc2c[nH]c3ccccc23)NC(=O)c2csc(n2)[C@@H](C)NC(=O)CN(C)C1=O [Argyrin A, Cyclo[D-Ala-Thz-Trp-Trp(4-MeO)-Gly-D-Ala-Dha-Sar], reference compound] (cyclo(W[Trp(4-OMe)]G[dA][Dha][Sar][dAla(ψthiazole)]))
P. aeruginosa PAO1
  IC50: 19.8 ± 1.6 µM
  % Growth inhibition at 100 μM: 82.6 ± 7.4%
B. multivorans ATCC17616
  IC50: 3.1 ± 1.7 µM

## C=C1NC(=O)[C@@H](C)NC(=O)CNC(=O)[C@H](Cc2c[nH]c3cccc(Cl)c23)NC(=O)[C@H](Cc2c[nH]c3ccccc23)NC(=O)c2csc(n2)[C@@H](C)NC(=O)CN(C)C1=O [Compound 2, Cyclo[D-Ala-Thz-Trp-Trp(4-Cl)-Gly-D-Ala-Dha-Sar]] (cyclo([Dha][Sar][dAla(ψthiazole)]W[Trp(4-Cl)]G[dA]))
P. aeruginosa PAO1
  IC50: 16.8 ± 2.9 µM
  % Growth inhibition at 100 μM: 87.0 ± 1.0%
[1]
  IC50: 0.18 ± 0.03 µM
Strep. agalactiae
  IC50: > 100 µM
Strep. pyogenes
  IC50: > 100 µM
B. multivorans ATCC17616
  IC50: 2.9 ± 2.5 µM
[2]
  susceptibility of the isolates to the compound: equally susceptible

## C=C1NC(=O)[C@@H](C)NC(=O)CNC(=O)[C@H](Cc2c[nH]c3cccc(Br)c23)NC(=O)[C@H](Cc2c[nH]c3ccccc23)NC(=O)c2csc(n2)[C@@H](C)NC(=O)CN(C)C1=O [Compound 3, Cyclo[D-Ala-Thz-Trp-Trp(4-Br)-Gly-D-Ala-Dha-Sar]] (cyclo([Dha][Sar][dAla(ψthiazole)]W[Trp(4-Br)]G[dA]))
[3]
  MIC: >64 mg/L
[4]
  MIC: >64 mg/L
[5]
  MIC: >64 mg/L
[6]
  MIC: >64 mg/L
[7]
  MIC: >64 mg/L
[8]
  MIC: >64 mg/L
[9]
  MIC: >64 mg/L
[10]
  MIC: >64 mg/L
[11]
  MIC: >64 mg/L
[12]
  MIC: >64 mg/L
[13]
  MIC: 32 mg/L (≈ 36.6 µM)
[14]
  MIC: 1.0 mg/L (≈ 1.14 µM)
P. aeruginosa PAO1
  IC50: 13.2 ± 3.2 µM
  % Growth inhibition at 100 μM: 85.7 ± 0.6%
[1]
  IC50: 0.13 ± 0.02 µM
[15]; LC-MS metabolite profiling, above control sample
  share of the mass of compounds detected in pooled faecal sample that corresponds to the compound: 85%
[15]; oral 5 mg/kg, mice, 24 h
  compound recovered from pooled faeces: 63%
[15]; single oral dose 5 mg/kg, mice, over 24 h
  systemic exposure (blood): undetectable
[16]
  MIC: >64 mg/L
[17]
  MIC: >64 mg/L
Strep. agalactiae
  IC50: > 100 µM
[18]
  MIC: >64 mg/L
[19]
  MIC: >64 mg/L
[20]
  MIC: >64 mg/L
Strep. pyogenes
  IC50: > 100 µM
[21]
  MIC: >64 mg/L
[22]
  MIC: 64 mg/L (≈ 73.2 µM)
B. multivorans ATCC17616
  IC50: 1.6 ± 1.4 µM
B. multivorans ATCC17616; FIG. 3, LB broth, 17 hours
  antibacterial activity (growth decrease): highly active
[23]
  MIC: >64 mg/L
B. vietnamiensis J2863
  antibacterial activity (growth decrease): highly active
[24]
  MIC: >64 mg/L
[25]
  MIC: >64 mg/L
[26]
  MIC: >64 mg/L
[2]
  susceptibility of the isolates to the compound: equally susceptible
B. cepasia ATCC25416
  antibacterial activity (growth decrease): highly active

## C[C@H]1NC(=O)CNC(=O)[C@H](Cc2c[nH]c3cccc(Br)c23)NC(=O)[C@H](Cc2c[nH]c3ccccc23)NC(=O)c2csc(n2)[C@@H](C)NC(=O)CN(C)C(=O)/C(=C/c2ccccc2)NC1=O [Compound 12, Cyclo[D-Ala-Thz-Trp-Trp(4-Br)-Gly-D-Ala-Dhp-Sar]] (cyclo(G[dA][X1][Sar][dAla(ψthiazole)]W[Trp(4-Br)]))
P. aeruginosa PAO1
  activity against P. aeruginosa in comparison to the Dha containing compound 3: dramatic loss in activity
  IC50: > 100 µM
  % Growth inhibition at 100 μM: 20.1 ± 5.4%
B. multivorans ATCC17616
  IC50: 1.1 ± 0.2 µM

## CC(C)=C1NC(=O)[C@@H](C)NC(=O)CNC(=O)[C@H](Cc2c[nH]c3cccc(Br)c23)NC(=O)[C@H](Cc2c[nH]c3ccccc23)NC(=O)c2csc(n2)[C@@H](C)NC(=O)CN(C)C1=O [Compound 13, Cyclo[D-Ala-Thz-Trp-Trp(4-Br)-Gly-D-Ala-Dhv-Sar]] (cyclo(G[dA][ΔVal][Sar][dAla(ψthiazole)]W[Trp(4-Br)]))
P. aeruginosa PAO1
  activity against P. aeruginosa in comparison to the Dha containing compound 3: did not result in a notable change in activity
  IC50: 12.2 ± 0.2 µM
  % Growth inhibition at 100 μM: 85.1 ± 3.4%
B. multivorans ATCC17616
  IC50: 1.54 ± 0.2 µM

## CC(C)/C=C1\NC(=O)[C@@H](C)NC(=O)CNC(=O)[C@H](Cc2c[nH]c3cccc(Br)c23)NC(=O)[C@H](Cc2c[nH]c3ccccc23)NC(=O)c2csc(n2)[C@@H](C)NC(=O)CN(C)C1=O [Compound 14, Cyclo[D-Ala-Thz-Trp-Trp(4-Br)-Gly-D-Ala-Dhl-Sar]] (cyclo(G[dA][X2][Sar][dAla(ψthiazole)]W[Trp(4-Br)]))
P. aeruginosa PAO1
  activity against P. aeruginosa in comparison to the Dha containing compound 3: dramatic loss in activity
  IC50: > 100 µM
  % Growth inhibition at 100 μM: 40.1 ± 6.8%
B. multivorans ATCC17616
  IC50: 0.98 ± 0.1 µM

## C/C=C1\NC(=O)[C@@H](C)NC(=O)CNC(=O)[C@H](Cc2c[nH]c3cccc(Br)c23)NC(=O)[C@H](Cc2c[nH]c3ccccc23)NC(=O)c2csc(n2)[C@@H](COC)NC(=O)CN(C)C1=O [Cyclo[D-Ser(OMe)-Thz-Trp-Trp(4-Br)-Gly-D-Ala-Dhb-Sar]]
[27]; from H-dSer(OMe)-Thz-Trp-Trp(4-Br)-Gly-dAla-Dhb-Sar-OH?
  ring closure, yield after HPLC: 19%

## C=C1NC(=O)[C@@H](C)NC(=O)CNC(=O)[C@H](Cc2c[nH]c3cccc(Cl)c23)NC(=O)[C@H](Cc2c[nH]c3ccccc23)NC(=O)c2csc(n2)[C@@H](CO)NC(=O)CN(C)C1=O [Cyclo[D-Ser-Thz-Trp-Trp(4-C1)-Gly-D-Ala-Dha-Sar]]
[27]; from H-dSer-Thz-Trp-Trp(4-Cl)-Gly-dAla-Dha-Sar-OH?
  ring closure, yield after HPLC: 4%

## CCc1c(Cl)c(O)c(Cl)c(O)c1C(=O)O[C@H]1[C@H](O)[C@H](OC)[C@H](OC/C2=C\C=C\C[C@H](O)/C(C)=C/[C@H](CC)[C@@H](O[C@@H]3OC(C)(C)[C@@H](OC(=O)C(C)C)[C@H](O)[C@@H]3O)/C(C)=C/C(C)=C/C[C@@H]([C@@H](C)O)OC2=O)O[C@@H]1C [Fidaxomicin, reference compound]
[28]; 2.5 mg/kg
  survival to the end of the study at day-21 post-infection: survived to the end of the study
[28]; 2.5 mg/kg oral BD for 5 days
  Mean survival: 504.00 h

## c1cc(-c2nc3ccc(-c4ccc5nc(-c6ccncc6)[nH]c5c4)cc3[nH]2)ccn1 [SMT19969, reference compound]
[28]; 20 mg/kg oral BD for 5 days
  Mean survival: 88.00 h
